Source: patent US8080517B2, “Cell-permeable peptide inhibitors of the JNK signal transduction pathway” (Xigen SA, priority 2005, dated 2011)
Where a SMILES comes first, the peptide text is derived from it. [ ]: non-standard residue; d: D form.

Tested on: endogenous JNK activity in HepG2 cells
Assay: Inhibition of endogenous IL-1β-induced JNK activity in HepG2 cells, AlphaScreen all-in one well approach
Assay type: cell-based
Details: FIG. 6 panel d
Procedure: HepG2 cells were seeded at 3,000 cells/well the day prior the experiment. Then, increasing concentrations of either interleukin-1β [IL-1β(▪)] or tumor necrosis factor α[TNFα(●)] (a) were added to activate JNK for 30 minutes. Cells were lysed in 20 mM Hepes, 0.5% Tween pH 7.4 and processed for AlphaScreen JNK. (b) Z′ for the JNK activity induced by 10 ng/ml IL-1β and measured in 384 wells/plate (n=96). (c) Inhibition of endogenous IL-1β-induced JNK activity with chemical JNK inhibitors [staurosporin (∘) and SP600125 (●)]. (d) Effect of peptidic inhibitors L-TAT-IB1(s) according to SEQ ID NO: 9 [here abbreviated as L-JNKi (▪)) and D-TAT-IB1(s) according to SEQ ID NO: 11 (here abbreviated as D-JNKi (□)) and JBDs (●) (corresponds to L-JNKI without the TAT sequence)] on […] dependent JNK activity. All panels are representative of three independent experiments (n=3).
Methods: Alphascreen Kinase Assay
Principle: AlphaScreen is a non-radioactive bead-based technology used to study biomolecular interactions in a microplate format. The acronym ALPHA stands for Amplified Luminescence Proximity Homogenous Assay. […]
Kinase reagents (B-GST-cJun, anti P-cJun antibody and active JNKS) were first diluted in kinase buffer (20 mM Tris-HCl pH 7.6, 10 mM MgCl2, 1 mM DTT, 100 μM Na3VO4, 0.01% Tween-20) and added to wells (15 μl). […] AlphaScreen signal was analyzed directly on the Fusion or En Vision apparatus.

CC(C)C[C@@H](NC(=O)[C@@H](Cc1ccccc1)NC(=O)[C@H]1CCCN1C(=O)[C@@H](CCC(N)=O)NC(=O)[C@H](NC(=O)[C@H]1CCCN1C(=O)[C@@H](CCCNC(=N)N)NC(=O)[C@@H](CO)NC(=O)[C@@H](CCC(N)=O)NC(=O)[C@H](N)CC(=O)O)C(C)C)C(=O)N[C@H](CC(N)=O)C(=O)N[C@H](CC(C)C)C(=O)N[C@@H](C(=O)N[C@@H](C(=O)N1CCC[C@@H]1C(=O)N[C@H](CCCNC(=N)N)C(=O)N[C@H](CCCCN)C(=O)N1CCC[C@@H]1C(=O)N[C@H](CCCNC(=N)N)C(=O)N1CCC[C@@H]1C(=O)N1CCC[C@@H]1C(=O)N[C@H](CCCNC(=N)N)C(=O)N[C@H](CCCNC(=N)N)C(=O)N[C@H](CCCNC(=N)N)C(=O)N[C@H](CCC(N)=O)C(=O)N[C@H](CCCNC(=N)N)C(=O)N[C@H](CCCNC(=N)N)C(=O)N[C@H](CCCCN)C(=O)N[C@H](CCCCN)C(=O)N[C@H](CCCNC(=N)N)C(=O)NCC(=O)O)[C@H](C)O)[C@H](C)O [D-TAT-IB1(s)] (H-[dD][dQ][dS][dR][dP][dV][dQ][dP][dF][dL][dN][dL][dT][dT][dP][dR][dK][dP][dR][dP][dP][dR][dR][dR][dQ][dR][dR][dK][dK][dR]G-OH)
inhibition of endogenous JNK activity: effectively inhibits JNK activity, even better than L-TAT-IB1(s)
